This passage reports inhibition and IC50 results from patent US20200031811A1, “SUBSTITUTED MONO- AND POLYAZANAPHTHALENE DERIVATIVES AND THEIR USE” (Basilea Pharmaceutica International AG, priority 2015, published 2020).

For test [1], the target named is T1, MNK1 (Homo sapiens, UniProt Q9BUB5).
T1 construct: purchased Life Technologies or Carna Biosciences PV6023 or 02-145; host or cells: baculovirus infected insect cells
The test can be described thus: MNK inhibition assay (Z-Lyte kinase assay, Ser/Thr 7 peptide). The test is classed as biochemical. The note with it: for IC50: recombinant GST-MNK1, 3 hours at 31° C. A digest of the protocol: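 Recombinant GST-MNK1 from baculovirus-infected insect cells, Z-Lyte Ser/Thr 7 peptide, enzyme set for ~30% phosphorylation in buffer-only wells; 3 hours at 31° C. Compounds at 50–10000 nM (potent ones down to 0.5 nM), at least duplicate. IC50 from % substrate phosphorylation versus buffer-only wells, fluorescence read-out.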

Test [2] concerns human pancreatic cancer cell line MiaPaCa2 (ATCC CRL-1420). The test is described as follows: Cell growth assay (CellTiterGlo, 72 hours). Format: cell-based. The following applies: for IC50: MIA PaCa-2, MiaPaCa2 cells, 72 hours, read-out: IC50 MiaPaCa; for inhibition at 100 µM: MIA PaCa-2, at 100 μM, read-out: Inhibition of MiaPaCa growth at indicated concentration. The method, boiled down:
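MiaPaCa2 cells (10^3/well) seeded in supplemented DMEM overnight, then exposed in quadruplicate to compound at 100 down to 0.1 μM for 72 h at 37° C. Growth read by CellTiterGlo luminescence, medium-only background subtracted, normalised to untreated cells; IC50 = concentration reducing growth to 50%.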
A general note: In ATP-based viability assays light output follows the ATP content of the culture.

Setting [3] is: read-out: Inhibition of MNK1 activity at indicated concentration.

The IC50 is the concentration that gives 50% inhibition.

T1 sequence (Q9BUB5 whole entry): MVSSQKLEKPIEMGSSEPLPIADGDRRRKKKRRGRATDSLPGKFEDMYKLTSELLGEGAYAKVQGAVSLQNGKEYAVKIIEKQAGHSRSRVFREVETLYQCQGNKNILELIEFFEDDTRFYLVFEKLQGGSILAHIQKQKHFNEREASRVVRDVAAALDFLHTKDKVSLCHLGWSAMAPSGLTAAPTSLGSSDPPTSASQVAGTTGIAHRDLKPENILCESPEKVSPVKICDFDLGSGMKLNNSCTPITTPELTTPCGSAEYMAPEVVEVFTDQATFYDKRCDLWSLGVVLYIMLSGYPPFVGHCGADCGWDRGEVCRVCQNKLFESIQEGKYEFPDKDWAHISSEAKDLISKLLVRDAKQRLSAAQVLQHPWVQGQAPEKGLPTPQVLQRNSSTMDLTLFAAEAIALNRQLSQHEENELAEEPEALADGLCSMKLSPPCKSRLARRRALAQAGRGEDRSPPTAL

In the case of `FC(F)(F)c1cc(NCc2ccc3cncc(-c4cc5ccccc5o4)c3c2)ccn1` [Example 64], in test [1] (at 10 μM, read-out: Inhibition of MNK1 activity at indicated concentration), the inhibition at 10 µM came out at 41%. The 50% inhibitory concentration (IC50) in test [2] came to 14800 nM.

`CC(C)Oc1cc(CN2CCC(N)CC2)cc2c(-c3cc4ccccc4o3)cncc12` [Example 283, 1-[[4-(benzofuran-2-yl)-8-isopropoxy-6-isoquinolyl]methyl]piperidin-4-amine]: the IC50 in test [1] stood at 750 nM; in test [2], 2550 nM.

With `CO[C@@H]1CN(Cc2ccc3cncc(-c4cc5ccccc5o4)c3c2)CC[C@H]1N` [Example 271], the IC50 in test [1] stood at 288 nM; in test [2], 4290 nM.

In the case of `Nc1ncc(-c2ccccc2)c2cc(CN3CCC(N)CC3)cc(Cl)c12` [Example 257], the figures for the IC50 in test [1] and in test [2] were 159 nM and 4870 nM, respectively.

On to `Cn1nccc1Nc1ccc2cncc(-c3cc4ccccc4o3)c2c1` [Example 98, 4-(Benzofuran-2-yl)-N-(2-methylpyrazol-3-yl)isoquinolin-6-amine], for which the inhibition at 1 µM in test [1] (setting [3]) was 40%. In addition, the IC50 in test [2] turned out to be 9880 nM.

Take `N#Cc1cc(CN2CCC(N)CC2)cc2c(-c3ccccc3)cncc12` [Example 307]: the IC50 was 256 nM in test [1] and 47700 nM in test [2].

Regarding `N[C@H]1CC[C@H](CNc2ccc3cncc(-c4cc5ccccc5o4)c3c2)CC1` [Example 230, trans-N-[(4-Aminocyclohexyl)methyl]-4-(benzofuran-2-yl) isoquinolin-6-amine], the values for the 50% inhibitory concentration (IC50) in test [1] and in test [2] were 2190 nM and 6020 nM, respectively.

Consider `c1ccc2oc(-c3cncc4ccc(Cn5ccc6cnccc65)cc34)cc2c1` [Example 189, 4-(Benzofuran-2-yl)-6-(pyrrolo[3,2-c]pyridin-1-ylmethyl)isoquinoline], for which the IC50 came out at 11 nM in test [1] and 8390 nM in test [2].

Consider `CC(=O)c1ccc(-c2cncc3ccc(CN4CCC(N)CC4)cc23)cc1` [Example 185], for which the IC50 was determined as 849 nM in test [1] and 22000 nM in test [2].

As to `NC1CCN(Cc2ccc3cncc(-c4ccccc4)c3c2)CC1` [Example 7], the IC50 in test [1] came to 744 nM; in test [2], 17500 nM.

Regarding `Nc1ncc(-c2cccs2)c2cc(CN3CCC(N)CC3)ccc12` [Example 290], the IC50 in test [1] worked out at 183 nM; in test [2], 5210 nM.

Regarding `NC1CCN(Cc2ccc3cncc(-c4ccc5cc[nH]c5c4)c3c2)CC1` [Example 169], the IC50 worked out at 247 nM in test [1] and 10300 nM in test [2].

As for `c1cncc(Nc2ccc3cncc(-c4cc5ccccc5o4)c3c2)c1` [Example 134], the IC50 in test [1] was 4680 nM. The inhibition at 100 µM in test [2] was found to be 45%.

With `c1ccc2oc(-c3cncc4ccc(CNc5ccnc6ncccc56)cc34)cc2c1` [Example 262, N-[[4-(Benzofuran-2-yl)-6-isoquinolyl]methyl]-1,8-naphthyridin-4-amine], the values for the IC50 in test [1] and in test [2] were 28 nM and 6800 nM, respectively.

For `Clc1cnccc1NCc1ccc2cncc(-c3cc4ccccc4o3)c2c1` [Example 71], the IC50 in test [1] came out at 128 nM; in test [2] it was 10300 nM.

Consider `Nc1ncc(-c2ccccc2)c2cc(N[C@H]3CC[C@H](N)CC3)ccc12` [Example 317, trans-N6-(4-aminocyclohexyl)-4-phenyl-isoquinoline-1,6-diamine], for which the IC50 in test [1] was determined as 312 nM; in test [2], 4580 nM.

Take `Nc1ncc(-c2cccc(Cl)c2)c2cc(CN3CCC(N)CC3)ccc12` [Example 216]: the IC50 in test [1] was determined as 1110 nM; in test [2], 2520 nM.

On to `NCCCOCc1ccc2cncc(-c3ccc(O)cc3)c2c1` [Example 44, 4-[6-(3-Aminopropoxymethyl)-4-isoquinolyl]phenol], for which the results for the IC50 in test [1] and in test [2] were 61 nM and 20600 nM, respectively.

For `CC(=O)Nc1cccc(-c2cncc3ccc(CN4CCC(N)CC4)cc23)c1` [Example 19], the inhibition at 1 µM in test [1] (setting [3]) amounted to 39%. For the same molecule, the IC50 in test [2] is 29700 nM.

For the molecule `CN(CCCN)Cc1ccc2cncc(-c3ccc(O)cc3)c2c1` [Example 36], the results for the IC50 in test [1] and in test [2] were 99 nM and 20200 nM, respectively.

As to `NC1CCN(Cc2cc3c(-c4ccccc4)cncc3cc2O)CC1` [Example 265, 6-[(4-Amino-1-piperidyl)methyl]-4-phenyl-isoquinolin-7-ol], the IC50 in test [1] is 308 nM; in test [2] it was 21900 nM.

Turning to `N[C@H]1CC[C@H](Oc2ccc3cncc(-c4ccccc4)c3c2)CC1` [Example 309], the IC50 came out at 61 nM in test [1] and 4430 nM in test [2].

For the molecule `NC1CCN(Cc2ccc3cncc(-c4cccc(Cl)c4)c3c2)CC1` [Example 10], the IC50 in test [1] was determined as 325 nM; in test [2] it was 11700 nM.

As for `NC1CCN(Cc2cc(Cl)c3cncc(-c4cccs4)c3c2)CC1` [Example 240], the results for the IC50 in test [1] and in test [2] were 145 nM and 5760 nM, respectively.

As to `Nc1ccc(-c2cncc3ccc(CN4CCC(N)CC4)cc23)cc1` [Example 2], the IC50 was determined as 93 nM in test [1] and 34600 nM in test [2].

Consider `NC1CCN(Cc2ccc3cncc(-c4cccc(O)c4)c3c2)CC1` [Example 187], for which the IC50 came out at 266 nM in test [1] and 13000 nM in test [2].

Regarding `COc1cc(CN2CCC(N)CC2)cc2c(-c3cccs3)cncc12` [Example 245], the IC50 in test [1] worked out at 24 nM; in test [2], 3330 nM.

As to `NC1CCN(Cc2ccc3cncc(-c4ccc(NC(=O)Nc5cccnc5)cc4)c3c2)CC1` [Example 117], in test [1], the IC50 turned out to be 603 nM. In test [2], the inhibition at 100 µM is 34%.

On to `NC1CCN(Cc2ccc3cncc(-c4cc5ccccc5o4)c3n2)CC1` [Example 300, 1-[[8-(Benzofuran-2-yl)-1,6-naphthyridin-2-yl]methyl]piperidin-4-amine], for which the IC50 stood at 89 nM in test [1] and 8360 nM in test [2].

On to `NC1CCN(Cc2ccc3cncc(-c4cc5cccnc5o4)c3c2)CC1` [Example 273, 1-[(4-Furo{2,3-b}pyridin-2-yl-6-isoquinolyl)methyl]piperidin-4-amine], for which the IC50 in test [1] is 767 nM; in test [2], 30400 nM.

Regarding `N[C@H]1CC[C@H](C(=O)Nc2ccc3cncc(-c4cc5ccccc5o4)c3c2)CC1` [Example 156, trans-4-Amino-N-[4-(benzofuran-2-yl)-6-isoquinolyl]cyclohexanecarboxamide], the values for the IC50 in test [1] and in test [2] were 371 nM and 10400 nM, respectively.

For `CN(C)c1cc(NCc2ccc3cncc(-c4cc5ccccc5o4)c3c2)ccn1` [Example 68], the IC50 amounted to 45 nM in test [1] and 6190 nM in test [2].

In the case of `Nc1cc[n+](Cc2ccc3cncc(-c4cc5ccccc5o4)c3c2)cc1` [Example 55], the values for the IC50 in test [1] and in test [2] were 14 nM and 1830 nM, respectively.

Turning to `NC1CCN(Cc2ccc3cncc(-c4ccc(CO)cc4)c3c2)CC1` [Example 181], the IC50 in test [1] stood at 522 nM; in test [2] it was 22800 nM.

On to `c1ccc2oc(-c3cncc4ccc(OCc5ccncc5)cc34)cc2c1` [Example 146, 4-(Benzofuran-2-yl)-6-(4-pyridylmethoxy)isoquinoline], for which the IC50 in test [1] is 268 nM; in test [2], 20000 nM.

As to `NC1CCN(Cc2cc(Cl)c3cncc(-c4ccc(F)c(F)c4)c3c2)CC1` [Example 238], the IC50 in test [1] was 234 nM; in test [2] it was 9080 nM.

For the molecule `N[C@H]1CC[C@H](Nc2ccc3cncc(-c4ccccc4)c3n2)CC1` [Example 303, trans-N4-(8-phenyl-1,6-naphthyridin-2-yl)cyclohexane-1,4-diamine], the values for the IC50 in test [1] and in test [2] were 31 nM and 9520 nM, respectively.
